Results as given in patent US20260256792A1, “TREATMENT OF CHRONIC SPONTANEOUS URTICARIA BY ADMINISTERING (R)-2-[3-[4-AMINO-3-(2-FLUORO-4-PHENOXY-PHENYL)PYRAZOLO[3,4-D]PYRIMIDIN-1-YL]PIPERIDINE-1-CARBONYL]-4-METHYL-4-[4-(OXETAN-3-YL)PIPERAZIN-1-YL]PENT-2-ENENITRILE” (priority 2023, published 2026).

System: moderate-to-severe chronic spontaneous urticaria (CSU)
Assay: Phase 2 CSU study: hives severity score over 7 days (HSS7)
Assay type: in vivo, human
Design: key to HSS7 Change from baseline, Median / HSS7, Median / HSS7, Max / HSS7 Change from baseline, Q1 / HSS7 Change from baseline, Q3 / HSS7 Change from baseline, Max: 7-day sum of daily hive scores, each 0 = none to 3 = >50 hives
Text: The study comprises a 12 week, randomized, double-blind, placebo-controlled, multi-center, dose-ranging efficacy and safety phase, followed by a 40 week open label extension (OLE) phase (see FIG. 1).
The study consists of three phases and an optional OLE phase.
The UAS is a validated PRO measure. The daily UAS is the sum of the daily Hive Severity Score (HSS, ranging from 0=None to 3=more than 50 hives) and the daily Itch Severity Score (ISS, ranging from 0=None to 3=intense), the 2 key urticaria signs and symptoms which are wheals and itch. The daily UAS scores range from 0 to 6 point/day. Daily UAS scores are summed over 7-day period to create the UAS7, ranging from 0 to 42, and are composed of the HSS7 and ISS7 components. […] Patients were to complete the UAS using the e-diary. The e-diary was to be used once daily on the same time of each day recording of participant's answers to the urticaria activity score over 7 days (UAS7) questionnaire. For participants who entered the OLE phase, their answers to the UAS7 questionnaire were also to be collected from Week 20 to Week24 and from Week 48 to Week 52.
The following secondary endpoints were to be analyzed using the same approach as for the primary endpoint: • Change from baseline in UAS7 at Week 4 • Change from baseline in UAS7 at Week 12 (for US and US reference countries) • Change from baseline in ISS7 at Week 12 (except US and US reference countries) • Change from baseline in HSS7 at Week 12

[1] = 400 mg QPM, Week 10, ITT Population
[2] = 400 mg QPM, Week 11, ITT Population
[3] = 400 mg QPM, Week 12, ITT population
[4] = 400 mg QPM, Week 12, Omalizumab-Naïve Population
[5] = 400 mg TID, Omalizumab-Naïve Population, last block under Week 12, double-blind period, WOCF imputation
[6] = 400 mg TID, Week 1, ITT Population
[7] = 400 mg TID, Week 1, Omalizumab-Naïve Population
[8] = 400 mg TID, Week 2, ITT Population
[9] = 400 mg TID, Week 2, Omalizumab-Naïve Population
[10] = 400 mg TID, Week 3, ITT Population
[11] = 400 mg TID, Week 3, Omalizumab-Naïve Population
[12] = 400 mg TID, Week 4, ITT population
[13] = 400 mg TID, Week 4, Omalizumab-Naïve Population
[14] = 400 mg TID, Week 5, ITT Population
[15] = 400 mg TID, Week 5, Omalizumab-Naïve Population
[16] = 400 mg TID, Week 6, ITT Population
[17] = 400 mg TID, Week 6, Omalizumab-Naïve Population
[18] = 400 mg TID, Week 7, ITT Population
[19] = 400 mg TID, Week 7, Omalizumab-Naïve Population
[20] = 400 mg TID, Week 8, ITT population
[21] = 400 mg TID, Week 8, Omalizumab-Naïve Population

Structure (SMILES): CC(C)(C=C(C#N)C(=O)N1CCC[C@@H](n2nc(-c3ccc(Oc4ccccc4)cc3F)c3c(N)ncnc32)C1)N1CCN(C2COC2)CC1 [rilzabrutinib, (R)-2-[3-[4-amino-3-(2-fluoro-4-phenoxy-phenyl)pyrazolo[3,4-d]pyrimidin-1-yl]piperidine-1-carbonyl]-4-methyl-4-[4-(oxetan-3-yl)piperazin-1-yl]pent-2-enenitrile]
- HSS7 % Change difference for rilzabrutinib vs.placebo LS Mean (95% CI) [1]: −6.70 %
- HSS7 % Change from baseline LS Mean (SE) [1]: −34.70 (6.79) %
- HSS7 Change difference for rilzabrutinib vs.placebo LS Mean (95% CI) [1]: −0.56 (−3.19, 2.07)
- HSS7 Change from baseline LS Mean (SE) [1]: −5.16 (0.98)
- HSS7 Postbaseline Mean (SD) [1]: 9.82 (5.85)
- HSS7 Postbaseline Mean (SD) (400 mg QPM, Week 10, Omalizumab-Naïve Population): 9.88 (5.93)
- HSS7 Postbaseline Mean (SD) (400 mg QPM, Week 10, Omalizumab-Naïve Population with Outlier Removed from Analysis): 9.88 (5.93)
- HSS7 % Change difference for rilzabrutinib vs.placebo LS Mean (95% CI) [2]: −8.01 %
- HSS7 % Change from baseline LS Mean (SE) [2]: −34.56 (7.07) %
- HSS7 Change difference for rilzabrutinib vs.placebo LS Mean (95% CI) [2]: −0.43 (−3.08, 2.22)
- HSS7 Change from baseline LS Mean (SE) [2]: −4.97 (0.99)
- HSS7 Postbaseline Mean (SD) [2]: 10.15 (6.09)
- HSS7 Postbaseline Mean (SD) (400 mg QPM, Week 11, Omalizumab-Naïve Population): 10.18 (6.18)
- HSS7 Postbaseline Mean (SD) (400 mg QPM, Week 11, Omalizumab-Naïve Population with Outlier Removed from Analysis): 10.18 (6.18)
- HSS7 % Change difference for rilzabrutinib vs.placebo LS Mean (95% CI) [3]: −5.74 %
- HSS7 % Change from baseline LS Mean (SE) [3]: −33.48 (7.28) %
- HSS7 Change difference for rilzabrutinib vs.placebo LS Mean (95% CI) [3]: 0.14 (−2.62, 2.91)
- HSS7 Change from baseline LS Mean (SE) [3]: −4.75 (1.03)
- HSS7 Change difference for rilzabrutinib vs.placebo LS Mean (95% CI) [4]: −0.09 (−2.92, 2.75)
- HSS7 Change from baseline LS Mean (SE) [4]: −4.49 (1.04)
- median reduction in HSS7 at Week 12 (400 mg TID, ITT population): −8.31 points
- HSS7, Max [5]: 16.0
- HSS7, Min [5]: 2.0
- HSS7 Change from baseline, Max [5]: 0.0
- HSS7 Change from baseline, Mean (SD) [5]: −5.20 (3.11)
- HSS7 Change from baseline, Median [5]: −6.00
- HSS7 Change from baseline, Min [5]: −8.0
- HSS7 Change from baseline, Q1 [5]: −7.00
- HSS7 Change from baseline, Q3 [5]: −5.00
- HSS7 Percent change from baseline, Max [5]: 0.0%
- HSS7 Percent change from baseline, Mean (SD) [5]: −38.89 (26.61) percent
- HSS7 Percent change from baseline, Median [5]: −44.44%
- HSS7 Percent change from baseline, Min [5]: −71.4%
- HSS7 Percent change from baseline, Q1 [5]: −50.00%
- HSS7 Percent change from baseline, Q3 [5]: −28.57%
- HSS7 % Change difference for rilzabrutinib vs.placebo LS Mean (95% CI) [6]: −30.65 %
- HSS7 % Change from baseline LS Mean (SE) [6]: −39.34 (5.49) %
- HSS7 Change from baseline LS Mean (SE) [6]: −6.09 (0.74)
- HSS7 Postbaseline Mean (SD) [6]: 7.76 (4.83)
- HSS7 % Change difference for rilzabrutinib vs.placebo LS Mean (95% CI) [7]: −27.41 %
- HSS7 % Change from baseline LS Mean (SE) [7]: −34.85 (6.00) %
- HSS7 Change from baseline LS Mean (SE) [7]: −5.32 (0.79)
- HSS7 Postbaseline Mean (SD) [7]: 8.26 (4.91)
- HSS7 Postbaseline Mean (SD) (400 mg TID, Week 1, Omalizumab-Naïve Population with Outlier Removed from Analysis): 8.50 (4.76)
- HSS7 % Change difference for rilzabrutinib vs.placebo LS Mean (95% CI) [8]: −30.93 %
- HSS7 % Change from baseline LS Mean (SE) [8]: −47.49 (5.64) %
- HSS7 Change difference for rilzabrutinib vs.placebo LS Mean (95% CI) [8]: −4.24 (−6.33, −2.15)
- HSS7 Change from baseline LS Mean (SE) [8]: −7.16 (0.77)
- HSS7 Postbaseline Mean (SD) [8]: 6.61 (5.06)
- HSS7 % Change difference for rilzabrutinib vs.placebo LS Mean (95% CI) [9]: −27.36 %
- HSS7 % Change from baseline LS Mean (SE) [9]: −42.63 (6.08) %
- HSS7 Postbaseline Mean (SD) [9]: 7.25 (5.05)
- HSS7 Postbaseline Mean (SD) (400 mg TID, Week 2, Omalizumab-Naïve Population with Outlier Removed from Analysis): 7.44 (5.01)
- HSS7 % Change difference for rilzabrutinib vs.placebo LS Mean (95% CI) [10]: −29.56 %
- HSS7 % Change from baseline LS Mean (SE) [10]: −48.71 (5.82) %
- HSS7 Change difference for rilzabrutinib vs.placebo LS Mean (95% CI) [10]: −3.79 (−5.97, −1.61)
- HSS7 Change from baseline LS Mean (SE) [10]: −7.29 (0.81)
- HSS7 Postbaseline Mean (SD) [10]: 6.49 (4.72)
- HSS7 % Change difference for rilzabrutinib vs.placebo LS Mean (95% CI) [11]: −27.37 %
- HSS7 % Change from baseline LS Mean (SE) [11]: −45.07 (6.36) %
- HSS7 Postbaseline Mean (SD) [11]: 7.03 (4.82)
- HSS7 Postbaseline Mean (SD) (400 mg TID, Week 3, Omalizumab-Naïve Population with Outlier Removed from Analysis): 7.03 (4.89)
- HSS7 % Change difference for rilzabrutinib vs.placebo LS Mean (95% CI) [12]: −29.20 %
- HSS7 % Change from baseline LS Mean (SE) [12]: −47.90 (5.95) %
- HSS7 Change difference for rilzabrutinib vs.placebo LS Mean (95% CI) [12]: −3.53 (−5.74, −1.31)
- HSS7 Change from baseline LS Mean (SE) [12]: −6.98 (0.82)
- HSS7 Postbaseline Mean (SD) [12]: 6.39 (4.92)
- HSS7 % Change difference for rilzabrutinib vs.placebo LS Mean (95% CI) [13]: −28.82 %
- HSS7 % Change from baseline LS Mean (SE) [13]: −44.69 (6.50) %
- HSS7 Postbaseline Mean (SD) [13]: 6.85 (4.96)
- HSS7 Postbaseline Mean (SD) (400 mg TID, Week 4, Omalizumab-Naïve Population with Outlier Removed from Analysis): 6.85 (4.96)
- HSS7 % Change difference for rilzabrutinib vs.placebo LS Mean (95% CI) [14]: −23.13 %
- HSS7 % Change from baseline LS Mean (SE) [14]: −52.29 (5.80) %
- HSS7 Change difference for rilzabrutinib vs.placebo LS Mean (95% CI) [14]: −3.09 (−5.36, −0.81)
- HSS7 Change from baseline LS Mean (SE) [14]: −7.73 (0.84)
- HSS7 Postbaseline Mean (SD) [14]: 6.02 (5.11)
- HSS7 % Change difference for rilzabrutinib vs.placebo LS Mean (95% CI) [15]: −18.86 %
- HSS7 % Change from baseline LS Mean (SE) [15]: −49.42 (6.23) %
- HSS7 Postbaseline Mean (SD) [15]: 6.49 (5.14)
- HSS7 Postbaseline Mean (SD) (400 mg TID, Week 5, Omalizumab-Naïve Population with Outlier Removed from Analysis): 6.49 (5.14)
- HSS7 % Change difference for rilzabrutinib vs.placebo LS Mean (95% CI) [16]: −28.20 %
- HSS7 % Change from baseline LS Mean (SE) [16]: −52.27 (6.61) %
- HSS7 Change difference for rilzabrutinib vs.placebo LS Mean (95% CI) [16]: −3.48 (−5.94, −1.02)
- HSS7 Change from baseline LS Mean (SE) [16]: −7.75 (0.91)
- HSS7 Postbaseline Mean (SD) [16]: 6.14 (5.55)
- HSS7 % Change difference for rilzabrutinib vs.placebo LS Mean (95% CI) [17]: −24.11 %
- HSS7 % Change from baseline LS Mean (SE) [17]: −48.15 (7.17) %
- HSS7 Postbaseline Mean (SD) [17]: 6.78 (5.55)
- HSS7 Postbaseline Mean (SD) (400 mg TID, Week 6, Omalizumab-Naïve Population with Outlier Removed from Analysis): 6.78 (5.55)
- HSS7 % Change difference for rilzabrutinib vs.placebo LS Mean (95% CI) [18]: −27.16 %
- HSS7 % Change from baseline LS Mean (SE) [18]: −51.12 (6.01) %
- HSS7 Change difference for rilzabrutinib vs.placebo LS Mean (95% CI) [18]: −3.58 (−5.87, −1.29)
- HSS7 Change from baseline LS Mean (SE) [18]: −7.66 (0.86)
- HSS7 Postbaseline Mean (SD) [18]: 6.18 (4.44)
- HSS7 % Change difference for rilzabrutinib vs.placebo LS Mean (95% CI) [19]: −24.63 %
- HSS7 Postbaseline Mean (SD) [19]: 6.40 (4.54)
- HSS7 Postbaseline Mean (SD) (400 mg TID, Week 7, Omalizumab-Naïve Population with Outlier Removed from Analysis): 6.40 (4.54)
- HSS7 % Change difference for rilzabrutinib vs.placebo LS Mean (95% CI) [20]: −25.27 %
- HSS7 % Change from baseline LS Mean (SE) [20]: −54.34 (6.35) %
- HSS7 Change difference for rilzabrutinib vs.placebo LS Mean (95% CI) [20]: −3.06 (−5.54, −0.58)
- HSS7 Change from baseline LS Mean (SE) [20]: −7.81 (0.92)
- HSS7 Postbaseline Mean (SD) [20]: 5.60 (4.81)
- HSS7 % Change difference for rilzabrutinib vs.placebo LS Mean (95% CI) [21]: −22.36 %
- HSS7 % Change from baseline LS Mean (SE) [21]: −50.37 (7.07) %
